This note sets out measurements from publication PMC8080777, “Discovery, optimization, and evaluation of non-bile acid FXR/TGR5 dual agonists” (Scientific Reports, 2021).

SMILES strings stand for the structures. Entries after “also recorded” stand apart in the source; their conditions may differ.

One assay addresses T1, FXR (Homo sapiens, UniProt Q96RI1).
T1 construct: host or cells: CHO cells
T1 sequence (Q96RI1 1-486): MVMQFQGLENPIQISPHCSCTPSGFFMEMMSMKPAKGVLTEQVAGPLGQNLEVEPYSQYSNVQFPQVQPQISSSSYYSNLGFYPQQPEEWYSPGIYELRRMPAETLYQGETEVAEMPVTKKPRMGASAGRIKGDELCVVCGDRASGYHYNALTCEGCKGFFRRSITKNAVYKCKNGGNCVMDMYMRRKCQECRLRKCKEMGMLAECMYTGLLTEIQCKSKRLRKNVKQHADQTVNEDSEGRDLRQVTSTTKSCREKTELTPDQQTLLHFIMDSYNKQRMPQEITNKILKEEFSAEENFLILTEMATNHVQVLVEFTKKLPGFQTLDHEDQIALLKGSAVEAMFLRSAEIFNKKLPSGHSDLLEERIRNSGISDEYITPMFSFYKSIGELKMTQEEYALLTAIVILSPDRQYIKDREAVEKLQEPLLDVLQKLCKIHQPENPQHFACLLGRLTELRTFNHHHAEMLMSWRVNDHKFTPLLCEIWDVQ
Description: CHO cell-based FXR luciferase reporter assay (Indigo Biosciences). As to conditions: for FXR Efficacy (%) (1 µM): % vs OCA 1 µM as 100%. The procedure: To evaluate direct agonist activities against FXR, test compounds were evaluated using a CHO cell-based FXR assay by Indigo Biosciences (State College, PA), in which cells were transfected with an FXR luciferase reporter system.
To directly evaluate the in vitro agonist activity towards FXR, test compounds were evaluated in CHO cells transfected with FXR responsive luciferase reporter (Nuclear Receptor & In Vitro Toxicology Solutions, Indigo Biosciences, State College, PA, USA). […] Each compound was tested in duplicate, and the average value was reported[35],[36].
(§1) The cell recovery medium (CRM, Human Farnesoid X Receptor (NR1H4, FXR reporter assay system, Indigo Biosciences, State College, PA, USA) and compound screening medium (CSM, Human Farnesoid X Receptor (NR1H4, FXR reporter assay system, Indigo Biosciences, State College, PA, USA) were removed from the freezer and thawed in a water bath at 37 °C. Test compounds were dissolved in dimethyl sulfoxide (DMSO, FUJIFILM Wako Pure Chemical Corporation, Osaka city, Osaka, Japan), and the treatment medium was prepared and diluted with CSM to achieve a final concentration of 0.2% total DMSO. The reporter cells were thawed by transferring 3.3 mL CRM at 37 °C into tubes of frozen cells. The tube containing reporter cells was recapped, and it was immediately place in a 37 °C water bath for 5 min. The reporter cells were gently inverted several times, and 100 µL cell suspension was dispensed into each well. One hundred microliters of treatment media was added into wells. Subsequently, the assay plate was kept at 37 °C, and it was incubated with 5% CO2 for 22 h. To prepare luciferase detection reagent (LDR), the detection substrate was gently mixed with detection buffer, media contents were removed from each well, and 100 µL LDR was added to each well of the assay plate. The assay plate was allowed to rest at room temperature for 5 min, and luminescence was quantified using the Multi-Mode Microplate Reader (FlexStation 3, Molecular Devices Inc., San Jose, CA, USA)[36].
S4. In vitro, in vivo assay, and selectvity.
To directly evaluate the in vitro agonist activity towards FXR, test compounds were evaluated in CHO cells transfected with FXR responsive luciferase reporter (Nuclear Receptor & In Vitro Toxicology Solutions, Indigo Biosciences, State College, PA, USA). Cells were incubated with […]
(FlexStation 3, Molecular Devices Inc., San Jose, CA, USA). Efficacies are reported relative to […]
reporter on of 1 µM. Each compound was tested in duplicate, and the average value was […]
as §1, with “sulfoxide (DMSO ,” for “sulfoxide (DMSO,”, “Osaka, Jap an),” for “Osaka, Japan),”, “a 37°C” for “a 37 °C”, “5% CO 2” for “5% CO2”, “using […]” for “using the Multi-Mode Microplate Reader (FlexStation 3, Molecular Devices Inc., San Jose, CA, USA)[36].”

Another assay has as its target T2, TGR5 (Homo sapiens, UniProt Q8TDU6).
T2 construct: host or cells: CHO cells
T2 sequence (Q8TDU6 1-330): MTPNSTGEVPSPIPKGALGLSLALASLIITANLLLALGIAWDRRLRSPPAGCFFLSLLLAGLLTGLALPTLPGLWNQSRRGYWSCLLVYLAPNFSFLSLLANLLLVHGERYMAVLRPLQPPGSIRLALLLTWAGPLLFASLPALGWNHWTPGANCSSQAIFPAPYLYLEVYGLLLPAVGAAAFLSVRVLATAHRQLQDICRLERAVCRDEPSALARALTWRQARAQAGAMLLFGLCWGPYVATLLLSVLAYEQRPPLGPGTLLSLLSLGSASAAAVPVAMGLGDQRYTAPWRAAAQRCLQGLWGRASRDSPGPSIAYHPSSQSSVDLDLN
Description: TGR5 cAMP assay in CHO cells transfected with TGR5 (cAMP Hunter eXpress, Discover X). In kind it is cell-based. As to conditions: for TGR5 Efficacy (%) (10 µM): % vs INT-767 10 µM as 100%. The procedure: TGR5 agonist activity was evaluated by transfecting CHO cells with TGR5 using the Discover X expression kit (cAMP Hunter eXpress GPCR Assay, Discover X Fremont, CA). Cells were incubated with test compounds for 0.5 h, and intracellular cAMP levels were measured using the multi-mode microplate reader.
(§2) TGR5 agonist activity was evaluated by transfecting CHO cells with TGR5 using the Discover X expression kit (cAMP Hunter eXpress Assay Kit, Discover X Fremont, CA, USA). Cells were incubated with the test compounds for 0.5 h, and intracellular cAMP levels were measured using Multi-Mode Microplate Reader (FlexStation 3, Molecular Devices Inc., San Jose, CA, USA).
Each compound was tested at concentrations of 10, 1, or 0.1 µM in duplicate (n = 2), with the average value shown.
S4. In vitro, in vivo assay, and selectvity. […]
In vitro TGR5 agonist assay protocol
as §2
Each compound was tested at concentrations of 10, 1, or 0.1 µM in duplicate (n=2), with the […]
parameter logistic equation, Y = min + (max - min)/(1 + 10^(n * (log10(EC50) - log10(conc)))), in […]
(Changes in cAMP serve as a functional read-out for many G protein-coupled receptors.)

Consider `Cc1cnccc1C(=O)N(Cc1ccc(-c2ccc(N(C)C)cc2)cc1)c1cc(Cl)cc(Cl)c1` [Compound 13j], for which, on FXR, the “FXR agonist activity (in words)” value was “potent FXR/TGR5 dual agonist activity; also recorded: dual potencies against both FXR and TGR5”; the “FXR Efficacy (%) (1 µM)” value amounted to 62.1%. Also, at TGR5, the “TGR5 agonist activity (in words)” value was “potent FXR/TGR5 dual agonist activity; also recorded: dual potencies against both FXR and TGR5”; the “TGR5 Efficacy (%) (10 µM)” value was found to be 59.7%.
Take `Cc1cnccc1C(=O)N(Cc1ccc(-c2ccc(N(C)C)cc2)cc1)c1cc(Cl)cc(Br)c1` [Compound 13k]: on FXR, the “FXR agonist activity (in words)” value was “dual potencies against both FXR and TGR5”; the “FXR Efficacy (%) (1 µM)” value was 75.9%. Also, at TGR5, the “TGR5 agonist activity (in words)” value was “dual potencies against both FXR and TGR5”; the “TGR5 Efficacy (%) (10 µM)” value was found to be 47.4%.
On to `Cc1cc(C)cc(N(Cc2ccc(-c3ccc(N(C)C)cc3)cc2)C(=O)c2ccncc2C)c1` [Compound 13l], for which the “FXR Efficacy (%) (1 µM)” value on FXR is on record as 37.6%. The “TGR5 Efficacy (%) (10 µM)” value on TGR5 amounted to 48.5%.
Taken in the same sequence, the figures for `COC(=O)/C=C/c1cc(Cl)cc(N(Cc2ccc(-c3ccc(N(C)C)cc3)cc2)C(=O)c2ccncc2C)c1` [Compound 13m] were 72.5% and 6.7%.
Taken in the same sequence, the figures for `Cc1cnccc1C(=O)N(Cc1ccc(-c2ccc(N(C)C)cc2)cc1)c1cc(Cl)cc(N2CCC2)c1` [Compound 13n] were 20.2% and 10.2%.
Turning to `Cc1cnccc1C(=O)N(Cc1ccc(-c2ccc(N(C)C)cc2)cc1)c1cc(Cl)cc(-c2cnn(C(C)C)c2)c1` [Compound 13o], the “FXR Efficacy (%) (1 µM)” value at FXR came out at 68.8%. Moreover, the “TGR5 Efficacy (%) (10 µM)” value at TGR5 was -1.5%.
On to `Cc1cnccc1C(=O)N(Cc1ccc(-c2ccc(N(C)C)cc2)cc1)c1cc(Cl)ccc1C` [Compound 13p], for which the “FXR Efficacy (%) (1 µM)” value on FXR stood at 1.9%. Besides, on TGR5, the “TGR5 agonist activity (in words)” value is “good potency against TGR5” and the “TGR5 Efficacy (%) (10 µM)” value worked out at 93.4%.
For `Cc1cnccc1C(=O)N(Cc1ccc(-c2ccc(N(C)C)cc2)cc1)c1cc(Cl)ccc1Cl` [Compound 13q], the “FXR Efficacy (%) (1 µM)” value at FXR was 1.5%. For the same molecule, at TGR5, the “TGR5 agonist activity (in words)” value is on record as “good potency against TGR5” and the “TGR5 Efficacy (%) (10 µM)” value amounted to 75.2%.
On the same counts, the results for `Cc1cnccc1C(=O)N(Cc1ccc(-c2ccc(N(C)C)cc2)cc1)c1cc(Cl)cc(Cl)c1C` [Compound 13r] are 8.6%, “good potency against TGR5” and 91.9%.
With `Cc1cnccc1C(=O)N(Cc1ccc(-c2ccc(N(C)C)cc2)cc1)c1cccc(-c2cnn(C(C)C)c2)c1C` [Compound 13s], on FXR, the “FXR agonist activity (in words)” value was “moderate FXR/TGR5 agonist activity” and the “FXR Efficacy (%) (1 µM)” value was 61.0%. Further, at TGR5, the “TGR5 agonist activity (in words)” value is “moderate FXR/TGR5 agonist activity” and the “TGR5 Efficacy (%) (10 µM)” value was 24.1%.
Turning to `Cc1cnccc1C(=O)N(Cc1ccc(-c2ccc(N(C)C)cc2)cc1)c1cccc(-c2cnn(C(C)C)c2)c1F` [Compound 13t], at FXR, the “FXR agonist activity (in words)” value is recorded as “strong FXR agonist activities” and the “FXR Efficacy (%) (1 µM)” value came out at 92.6%. Further, the “TGR5 Efficacy (%) (10 µM)” value on TGR5 came to 8.3%.
On the same counts, the results for `COC(=O)/C=C/c1cccc(N(Cc2ccc(-c3ccc(N(C)C)cc3)cc2)C(=O)c2ccncc2C)c1F` [Compound 13u] are “strong FXR agonist activities”, 90.3% and -2.5%.
In the case of `CCc1cnccc1C(=O)N(Cc1ccc(-c2ccc(N(C)C)cc2)cc1)c1cc(Cl)cc(Cl)c1` [Compound 13v], the “FXR Efficacy (%) (1 µM)” value at FXR was determined as 21.3%. For the same molecule, the “TGR5 Efficacy (%) (10 µM)” value at TGR5 amounted to 65.3%.
On the same counts, the results for `CN(C)c1ccc(-c2ccc(CN(C(=O)c3ccncc3C3CC3)c3cc(Cl)cc(Cl)c3)cc2)cc1` [Compound 13w] are 22.7% and 73.1%.
